Experimental data published in patent publication US9593305B2, “Differentiation of pluripotent stem cells” (Janssen Biotech, Inc., priority 2008, dated 2017).

Tests used:
[1] = tested on: H1 human embryonic stem cells; assay: Screen of CDK, GSK3 and TRK inhibitors with or without GDF-8, SOX17 and cell number (Example 20, Table 17); assay type: cell-based; settings: Plate 1; for Cell Number, % of positive control / Sox17 Expression, % of positive control: positive control = Activin A/Wnt3a
Experimental: Briefly, clusters of H1 human embryonic stem cells were grown on reduced growth factor Matrigel™ (Invitrogen; Cat #356231) coated tissue culture plastic. Cells were passaged using collagenase (Invitrogen; Cat #17104-019) treatment and gentle scraping, washed to remove residual enzyme, and plated with even dispersal at a ratio of 1:1 (surface area) on reduced growth factor […]™ (BD Biosciences; Cat #356231)-coated 96-well black plates (Packard ViewPlates; PerkinElmer; Cat #6005182) using volumes of 100 μl/well. Cells were allowed to attach and then recover log phase growth over a 1 to 3 day time period, feeding daily with MEF conditioned medium supplemented with 8 ng/ml bFGF (R&D Systems; Cat #233-FB). Plates were maintained at 37° C., 5% CO2 in a humidified box throughout the duration of assay.
Screening was conducted using the compounds described in Table 16. […] Compounds were made available as 5 mM stocks in 96-well plate format, solubilized in 100% DMSO (Sigma; Cat #D2650) and stored at −80° C. The library compounds were further diluted to an intermediate concentration of 0.2 mM in 50 mM HEPES (Invitrogen; Cat #15630-080), 20% DMSO and stored at 4° C. Test conditions were performed in triplicate, feeding on alternating days over a four-day assay period. Assay was initiated by aspirating culture medium from each well followed by three washes in PBS (Invitrogen; Cat #14190) to remove residual growth factors. On the first day of assay, test volumes of 200 μl per well were added to each well using DMEM:F12 base medium (Invitrogen; Cat #11330-032) supplemented with 0.5% FCS (HyClone; Cat #SH30070.03) and 100 ng/ml GDF-8 (R&D Systems, Cat #788-G8) plus 2.5 μM compound. A parallel set of test samples were treated in an identical manner but omitting GDF-8 from the medium. On the third day of assay, test volumes of 100 μper well were added to each well using DMEM:F12 base medium supplemented with 2% FCS plus 100 ng/ml GDF-8 (R&D Systems, Cat #788-G8). […] Positive control samples contained the same base medium supplemented with FCS and 100 ng/ml recombinant human activin A (PeproTech; Cat #120-14) throughout the four day assay along with Wnt3a (20 ng/ml) addition on days 1 and 2. Negative control samples contained DMEM:F12 base medium supplemented with FCS.
At the conclusion of four-days of culture, assay plates were washed twice with PBS (Invitrogen; Cat #14190), fixed with 4% paraformaldehyde (Alexis Biochemical; Cat #ALX-350-011) at room temperature for 20 minutes, then washed three times with PBS and permeabilized with 0.5% Triton X-100 (Sigma; Cat #T8760-2) for 20 minutes at room temperature. Cells were washed again three times with PBS and blocked with 4% chicken serum (Invitrogen; Cat #16110082) in PBS for 30 minutes at room temperature. Primary antibody (goat anti-human SOX17; R&D Systems; Cat #AF1924) was diluted 1:100 in 4% chicken serum and added to each well for one hour at room temperature. Alexa Fluor 488 conjugated secondary antibody (chicken anti-goat IgG; Molecular Probes; Cat #AZ1467) was diluted 1:200 in PBS and added to each sample well after washing three times with PBS. To counterstain nuclei, 4 μg/ml Hoechst 33342 (Invitrogen; Cat #H3570) was added for ten minutes at room temperature. Plates were washed once with PBS and left in 100 μl/well PBS for imaging.
Imaging was performed using an IN Cell Analyzer 1000 (GE Healthcare) utilizing the 51008bs dichroic for cells stained with Hoechst 33342 and Alexa Fluor 488. Exposure times were optimized from positive control wells and from untreated negative control wells stained with secondary antibody alone. Images from 15 fields per well were acquired to compensate for any cell loss during the bioassay and subsequent staining procedures. Measurements for total cell number and total SOX17 intensity were obtained from each well using IN Cell Developer Toolbox 1.7 (GE Healthcare) software. […]

[2] = tested on: CDK, GSK3, and/or TRK signaling pathways; assay: Primary selectivity of the proprietary small molecules (Table 16); settings: as listed in Table 17
Experimental: A subset of 14 proprietary small molecules, known to have specificity for the CDK, GSK3, and/or TRK signaling pathways were evaluated for their potential to differentiate human embryonic stem cells to cells expressing markers characteristic of the definitive endoderm lineage.

[3] = compound in combination with GDF8

Row | SMILES | Cell Number, Average Total Cell Number ([1]; compound alone, No GDF8) | Sox17 Expression, Average Total Intensity ([1]; compound alone, No GDF8) | Cell Number, % of positive control ([1]; compound alone, No GDF8) | Sox17 Expression, % of positive control ([1]; compound alone, No GDF8) | Cell Number, Average Total Cell Number [1, 3] | Sox17 Expression, Average Total Intensity [1, 3] | Cell Number, % of positive control [1, 3] | Sox17 Expression, % of positive control [1, 3] | Compound Selectivity [2] | Compound Selectivity ([2]; GDF8 treatment) | Compound Selectivity ([2]; No GDF8 treatment)
1 | O=C(O)c1ccc(Nc2ncc3nnn(-c4cccc(F)c4)c3n2)cc1 [Compound 6] | 14827 | −1.8E+05 | 102.4 % of positive control | −0.1 % of positive control | 5118 | 5.8E+07 | 35.4 % of positive control | 25.2 % of positive control | Selective for GSK |  | 
2 | O=C(O)c1cc(Nc2ncc3nnn(-c4ccccc4)c3n2)ccc1F [Compound 7, 2-Fluoro-5-[(3-phenyl-3H-[1,2,3]triazolo[4,5-d]pyrimidin-5-yl)amino]benzoic acid] | 3 | −1.4E+06 | 0.0 % of positive control | −0.6 % of positive control | 5296 | 7.0E+07 | 36.6 % of positive control | 30.4 % of positive control |  | Selective for GSK | Selective for CDK
3 | Nc1nccc(-c2cccc(Nc3ncc4nnn(-c5cccc(CNC(=O)C6CC6)c5)c4n3)c2)n1 [Compound 8, N-{[3-(5-{[3-(2-Aminopyrimidin-4-yl)phenyl]amino}-3H-1-[1,2,3]triazolo[4,5-d]pyrimidin-3-yl)phenyl]methyl}cyclopropanecarboxamide] | 13235 | 3.8E+05 | 91.4 % of positive control | 0.2 % of positive control | 5018 | 4.7E+07 | 34.7 % of positive control | 20.4 % of positive control | Selective for GSK |  | 
4 | COCCCNS(=O)(=O)c1ccc(Nc2ncc3cnn(C4CCCCC4)c3n2)cc1 [Compound 9, 4-[(1-Cyclohexyl-1H-pyrazolo[3,4-d]pyrimidin-6-yl)amino]-N-[3-(methyloxy)propyl]benzenesulfonamide] | 7156 | −4.2E+04 | 49.4 % of positive control | 0.0 % of positive control | 4816 | 4.5E+07 | 33.3 % of positive control | 19.4 % of positive control | Selective for CDK |  | 
5 | COc1ccc(Nc2cc(Nc3cc(Cl)ccc3O)ncn2)cc1CCl [Compound 10, 4-Chloro-2-[(6-{[3-(chloromethyl)-4-methoxyphenyl]amino}pyrimidin-4-yl)amino]phenol] | 7011 | −6.6E+05 | 48.4 % of positive control | −0.3 % of positive control | 4627 | 6.6E+07 | 32.0 % of positive control | 28.6 % of positive control | Selective for CDK |  | 
6 | CN1CCC(NC(=O)c2ccc(Nc3nccc(N4CCN(C)c5ccccc54)n3)cc2)CC1 [Compound 11, 4-{[4-(4-Methyl-3,4-dihydroquinoxalin-1(2H)-yl)pyrimidin-2-yl]amino}-N-(1-methylpiperidin-4-yl)benzamide] | 565 | −1.1E+06 | 3.9 % of positive control | −0.5 % of positive control | 210 | −4.9E+05 | 1.4 % of positive control | −0.2 % of positive control | Selective for CDK |  | 
7 | COCCCNCc1ccc(Nc2nccc(-c3c[nH]c4ncccc34)n2)c(OC)c1 [Compound 12, N-(2-Methoxy-4-{[(3-methoxypropyl)amino]methyl}phenyl)-4-(1H-pyrrolo[2,3-b]pyridin-3-yl)pyrimidin-2-amine] | 13124 | −2.3E+05 | 90.7 % of positive control | −0.1 % of positive control | 31 | −1.3E+06 | 0.2 % of positive control | −0.6 % of positive control |  | Selective for CDK | Selective for GSK
8 | N#Cc1cnc2nc1Nc1cccc(c1)OCCNC(=O)c1cccc(c1)N2 [Compound 41, 18-Oxo-14-oxa-2,4,8,17,25-pentaazatetracyclo[17.3.1.1˜3,7˜0.1˜9,13˜]pentacosa-1(23), 3(25), 4,6,9(24), 10,12,19,21-nonaene-6-carbonitrile] | 9995 | 5.9E+04 | 69.0 % of positive control | 0.0 % of positive control | 4455 | 3.4E+07 | 30.8 % of positive control | 14.8 % of positive control | Selective for GSK |  | 
